Earlier results, collected in US4127522A, “Novel triacontapeptides, intermediates therefor and pharmaceutical compositions and methods employing said triacontapeptides” (priority 1977, dated 1978).

Columns and labels:
[1] = test system: partially purified brain opiate receptor sites; details: natural peptide; Bradbury et al.
[2] = injected directly into the brain of the rat; Belluzzi et al.

H-Tyr-Gly-Gly-Phe-Met-OH [methionine enkephalin]
binding to partially purified brain opiate receptor sites [1]: binds stereo-specifically | activity in bioassays for opiate activity (opiate activity): very active | analgesic activity [2]: only weak analgesic agent of short duration
